Data from patent US5670509A, “Tocolytic oxytocin receptor antagonists” (priority 1995, dated 1997).
Read-outs that look alike come from different tables or passages of the source. Each block holds one compound with its values, some of them ahead of it.

Assays:
[1] = test system: premature labor; conditions: compared with ritodrine; cited from earlier work
[2] = target: T1, uterine OT receptors (Rattus norvegicus, UniProt P70536); assay: Radioligand binding assay: competition of [3H]oxytocin binding to a crude membrane preparation of uteri from DES-treated rats; conditions: 1 nM [3H]OT; 60 minutes; 22° C.; pH 7.4; rat uterus membranes
T1 construct: from tissue; host or cells: rat uterus (DES-treated), crude membrane preparation
T1 sequence (P70536 1-388): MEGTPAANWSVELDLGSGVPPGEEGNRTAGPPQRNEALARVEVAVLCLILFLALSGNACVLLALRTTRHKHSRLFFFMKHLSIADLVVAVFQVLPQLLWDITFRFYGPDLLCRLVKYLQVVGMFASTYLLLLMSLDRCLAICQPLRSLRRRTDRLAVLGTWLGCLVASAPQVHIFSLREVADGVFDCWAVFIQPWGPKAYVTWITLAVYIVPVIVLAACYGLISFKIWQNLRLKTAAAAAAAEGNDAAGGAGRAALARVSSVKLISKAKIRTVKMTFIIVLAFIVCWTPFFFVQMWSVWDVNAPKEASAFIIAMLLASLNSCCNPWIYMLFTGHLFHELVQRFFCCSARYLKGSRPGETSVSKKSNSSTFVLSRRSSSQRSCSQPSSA
Experimental: The high affinity binding of [^3 H] Oxytocin (OT)([tyrosyl, 3,5-[^3 H]OT; 30-60 Ci/mmol; New England Nuclear. Boston, Mass.) to uterine OT receptors was based on an assay (Fuchs, A-R; Fuchs, F; Soloff, MS. 1985 J. Clin. Endocrinol. Metab. 60:37) using a crude membrane preparation of uteri taken from diethylstilbestrol dipropionate (DES)-treated (0.3 mg/kg, ip; 18-24) rats. Competition studies were conducted at equilibrium (60 minutes; 22° C.) using 1 nM[^3 H]OT in the following assay buffer: 50 mM Tris-HCl, 5 mM MgCl2, and 0.1% BSA, pH 7.4. Nonspecific binding (10% of the total binding) was determined using 1 μM unlabeled OT and the binding reaction was terminated by filtration through glass fiber filters using a cell harvester (model 7019, Skatron, Inc., Sterling, Va.). IC50 (the concentration of tested compound that inhibits 50% of OT) was reported, unless otherwise noted.
IC50 values were determined for both [^3 H]OT and [^3 H]AVP binding assays by linear regression of the relation log concentration of compound vs. percent inhibition of specific binding.

[3] = cited from earlier work

Structure (SMILES): CCO [Ethanol]
- effectiveness in preventing premature labor (in words) [1]: as effective as ritodrine in preventing premature labor
- reduction in the incidence of fetal respiratory distress (in words) [1]: does not produce a corresponding reduction in the incidence of fetal respiratory distress that administration of ritodrine does

Structure (SMILES): O=S(=O)([O-])[O-].[Mg+2] [Magnesium sulfate]
- toxicity at plasma concentrations above the therapeutic range (in words) ([3]; above 4 to 8 mg/dL plasma): can cause inhibition of cardiac conduction and neuromuscular transmission, respiratory depression and cardiac arrest
- therapeutic range of plasma concentrations ([3]; plasma): 4 to 8 mg/dL

Structure (SMILES): CC(NCCc1ccc(O)cc1)C(O)c1ccc(O)cc1 (stereo not drawn) [Ritodrine]
- side effects (in words) ([3]; tocolytic use, in the mother): causes a number of cardiovascular and metabolic side effects in the mother, including tachycardia, increased renin secretion, hyperglycemia (and reactive hypoglycemia in the infant)

Structure (SMILES): CC(C)(C)NCC(O)c1ccc(O)c(CO)c1 (stereo not drawn) [albuterol]
- side effects (in words) ([3]; in vivo): side effects similar to those of ritodrine

Structure (SMILES): CC(C)(C)NCC(O)c1cc(O)cc(O)c1 (stereo not drawn) [terbutaline]
- side effects (in words) ([3]; tocolytic use, in the mother): side effects similar to those of ritodrine

Other lines, results leading:

- IC50 [2]: 3700 nM
Structure (SMILES): O=C(Cc1ccc2c(c1)OCO2)N1CCC2(C=Cc3ccccc32)CC1 [Example 10]

- IC50 [2]: 150 nM
Structure (SMILES): O=C(Nc1ccc(CC(=O)N2CCC3(C=Cc4ccccc43)CC2)cc1)c1ccc2[nH]cnc2c1 [Example 12]

- IC50 [2]: 170 nM
Structure (SMILES): O=C(CCc1c[nH]cn1)Nc1ccc(CC(=O)N2CCC3(CCc4ccccc43)CC2)cc1 [Example 14]

- IC50 [2]: 310 nM
Structure (SMILES): O=C(Nc1ccc(CC(=O)N2CCC3(C=Cc4ccccc43)CC2)cc1)c1ccc2[nH]ccc2c1 [Example 15]

- IC50 [2]: 520 nM
Structure (SMILES): O=C(Nc1ccc(CC(=O)N2CCC3(C=Cc4ccccc43)CC2)cc1)c1ccc2[nH]nnc2c1 [Example 16]
